Measurements taken from patent US5804603A, “Synthesized β-adrenergic blockers derivatives of guaiacol” (National Science Council, priority 1995, dated 1998).
Where two headings read alike, the source gives them in different places.

Assays:
[1] = test system: β1 and β2 receptors; settings: cited from earlier work
[2] = test system: heart rate and blood pressure; experiment: Heart rate and blood pressure of anesthetized rats (i.v.); assay type: in vivo
Source text: […]. The effect of DZN on heart rate and blood pressure were monitored.
[…]. Exp. Ther., vol. 96, 99-113). The ID50 value is the response of a β drug which produces a response in 50% of […].

[3] = molecular target: T1, β2 adrenergic receptor (Rattus norvegicus, UniProt P10608); experiment: Antagonism of isoproterenolol on isolated rat uterus horns; assay type: cell-based; settings: 10^-8 -10^-6 M isoproterenolol
T1 construct: from tissue; host or cells: rat uterus horns (isolated organ, stilbestrol and reserpine pretreated)
Description: Female rats were intraperitonealy injected with stilbestrol (1 mg/kg) to elevate the sensitivity of β2 adrenergic receptor in uterus horns. The rats were subsequently administered reserpine to deplete the catecholamine in uterus. The isolated uterus horns were treated with phenoxybenzamine to block the neuronal uptake and the interaction between neuron cells and the adrenergic receptor.

[4] = test system: isolated rat right atrium; experiment: Isolated rat right atrium pretreated with reserpine; assay type: cell-based
[5] = test system: platelets; settings: cited from earlier work
[6] = test system: heart rate and blood pressure; experiment: Heart rate and blood pressure changes of rats induced by guaiacoxypropanolamines; assay type: in vivo
[7] = test system: platelet aggregation induced by collagen; experiment: Collagen-induced platelet aggregation in platelet rich plasma; assay type: cell-based; settings: 10 μg/ml collagen, PRP; for IC100: Platelet, FIG. 18, read-out: concentration completely inhibiting platelet aggregation
Description: A monophasic aggregation curve was observed when 10 μg/ml of collagen was added to platelet rich plasma (PRP).

[8] = molecular target: T2, Isolated Guinea Pig Atria (Cavia porcellus, UniProt H0W3H1); experiment: pA2 on isolated guinea pig atria; assay type: cell-based; settings: for Kb / pA2, positive chronotropic / pA2, positive inotropic: isolated guinea pig atria; for Potency ratio (PR), positive chronotropic / Potency ratio (PR), positive inotropic: with respect to propranolol
T2 construct: Isolated Guinea Pig Atria; from tissue; host or cells: guinea pig atria (isolated organ)
Source text: The determination of the pA2 is made from experiments in which a fixed concentration of the antagonist is used along with graded concentrations of an agonist acting on the same receptor. The presence of the antagonist shifts the agonist dose-response curve to the right.

[9] = test system: acetic acid-induced writhing syndrome; experiment: Acetic acid-induced writhing (antinociceptive test); assay type: in vivo, male mice (ddk strain); settings: for Protection / Writhes No. (Ave. ± S.E.): 1.25 mg/kg i.p., N = 8; for ED50: Mus musculus, ip, read-out: ED50 (95% C.I.); for Potency ratio: relative to DZ = 1.00
Description: Following the method described by Koster antinociceptive tests were carried out in male mice after intraperitoneal administration of test solution. […] The test solution was administered by intraperitoneal injection of a single dose 0.2 ml (vehicle administered as control). Twenty minutes after injection, 0.2 ml of 0.7% acetic acid was injected intraperitoneally to induce writhing.

[10] = in vivo; settings: mouse, mice, read-out: LD50 (95% C.L.)
[11] = molecular target: β-receptor (Cavia porcellus, UniProt H0W3H1); experiment: Receptor binding assay, [3H]-dihydroalprenolol, heart ventricle membranes
Description: Method of receptor binding assay. After punching the heads of guinea pigs, the blood was drained and the heart ventricle immediately removed. The ventricles were placed in 10 vols. of ice-cold buffer (250 mM sucrose, 1 mM Magnesium Chloride, 50 mM Tris-HCl, pH 7.5) and all subsequent procedures were carried out at 4° C. The ventricles were homogenized using a homogenizer 3-4 times. The period of each homogenization took 15 seconds. […] The supernatant was further centrifuged at 10,000 g and the final pellet was resuspended in a small volume of 75 mM Tris buffer containing 25 mM Magnesium Chloride. The membrane protein content was determined by a protein assay dye. The receptor binding assay was initiated by incubating 100 μl of, a membrane protein solution with 50 μl of [^3 H]-dihydroalprenolol(^3 H-DHA) and the competing drugs. Additional buffer was added to increase the reaction volume up to 250 μl. The binding reaction was activated at 25° C. water by constantly shaking for 60 minutes. The binding reaction was stopped by diluting it with 1 ml of ice-cold assay buffer. The solution was then filtered on a Whatman GF/C glass fiber filter paper under vacuum suction. The filters were washed 3 times with ice-cold assay buffer and dried at 60±C. in an oven for 2 hrs. Then 4 ml of scintillation fluid was added and the radioactivity was counted on β-counter.

[12] = 5 min after dosing, 1.0 mg/kg iv, means ± SE (n = 8)
[13] = 10 min after dosing, 1.0 mg/kg iv, means ± SE (n = 8)
[14] = 15 min after dosing, 1.0 mg/kg iv, means ± SE (n = 8)
[15] = 30 min after dosing, 1.0 mg/kg iv, means ± SE (n = 8)
[16] = 60 min after dosing, 1.0 mg/kg iv, means ± SE (n = 8)
[17] = read-out: pA2, positive chronotropic (converted)
[18] = read-out: pA2, positive inotropic (converted)
[19] = mice, Litchfield and Wilcoxon method

T2 sequence (H0W3H1 1-470): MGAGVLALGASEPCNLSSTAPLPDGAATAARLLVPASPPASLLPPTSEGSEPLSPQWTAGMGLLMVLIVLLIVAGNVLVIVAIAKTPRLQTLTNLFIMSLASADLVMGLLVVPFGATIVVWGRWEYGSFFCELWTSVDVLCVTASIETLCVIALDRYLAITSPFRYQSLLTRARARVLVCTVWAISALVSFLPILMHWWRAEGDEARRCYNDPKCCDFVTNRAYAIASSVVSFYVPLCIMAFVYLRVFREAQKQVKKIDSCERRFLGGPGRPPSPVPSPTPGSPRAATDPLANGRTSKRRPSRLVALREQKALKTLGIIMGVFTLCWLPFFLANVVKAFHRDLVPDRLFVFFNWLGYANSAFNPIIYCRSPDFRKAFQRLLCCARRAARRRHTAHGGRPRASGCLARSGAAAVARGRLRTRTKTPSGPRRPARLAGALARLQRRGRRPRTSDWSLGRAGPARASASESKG
β-receptor, sequence (H0W3H1 1-470): as above
T1 sequence (P10608 whole entry): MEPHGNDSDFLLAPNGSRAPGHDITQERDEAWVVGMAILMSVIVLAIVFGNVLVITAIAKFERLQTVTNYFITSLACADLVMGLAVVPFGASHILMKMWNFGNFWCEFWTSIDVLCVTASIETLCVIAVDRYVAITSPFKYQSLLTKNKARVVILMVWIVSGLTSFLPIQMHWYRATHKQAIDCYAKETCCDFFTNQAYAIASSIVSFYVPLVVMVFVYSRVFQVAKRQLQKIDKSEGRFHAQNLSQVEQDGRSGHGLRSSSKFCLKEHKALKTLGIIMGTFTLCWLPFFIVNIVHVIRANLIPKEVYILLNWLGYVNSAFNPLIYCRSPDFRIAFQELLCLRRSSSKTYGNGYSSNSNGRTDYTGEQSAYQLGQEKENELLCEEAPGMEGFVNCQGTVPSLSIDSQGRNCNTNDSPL

## CC(C)NCC(O)COc1ccc(CC(N)=O)cc1 (racemic) [Atenolol, reference compound]
[1]
  cardioselectivity: possess cardioselectivity

## CC(C)NCC(O)c1ccc(O)c(O)c1 (stereo not shown) [isoproterenolol, reference compound]
[2]; isoproterenolol 0.5 mg/kg
  effect on blood pressure: decreased blood pressure
  effect on heart rate: increased the heart rate
[3]
  effect on isolated uterus horn smooth muscle: dose-related decrease in relaxation force
[4]; FIG. 16
  effect on heart rate and contraction force: increases the heart rate and contraction force
[4]; FIG. 17
  concentration of isoproterenolol giving maximum effect: 3 µM

## CC(C)NCC(O)COc1cccc2ccccc12 (stereo not shown) [propranolol, reference compound]
[5]
  adherence of platelets on collagen: inhibit platelet release and the adherence of platelets on collagen
  platelet release: inhibit platelet release
  shape change of platelets: does not inhibit the shape change of platelets
[2]; FIGS. 6(A), 6(B)
  effect on isoproterenolol-induced heart rate and blood pressure changes: antagonized the effects of isoproterenolol
[2]; Rattus norvegicus, iv, anesthetized rats, Litchfield method, read-out: ID50 : heart rate response (95% C.I.)
  ED50: 0.14 mg/kg
[2]; i.v., anesthetized rats, Litchfield method
  ID50 : heart rate response (95% C.I.): 0.14 (0.96-0.02) mg/kg
[2]; i.v., statistical significance not found
  time of slightly reduced blood pressure after injection: 5 to 10 min
[6]; [12]
  change in HR: -57.28 ± 5.94 beats/min
[6]; [13]
  change in BP: -6.33 ± 2.16 mmHg
  change in HR: -63.85 ± 7.18 beats/min
[6]; [14]
  change in BP: -6.50 ± 3.26 mmHg
  change in HR: -65.28 ± 8.43 beats/min
[6]; [15]
  change in BP: -4.67 ± 2.66 mmHg
  change in HR: -62.57 ± 9.06 beats/min
[6]; [16]
  change in BP: 2.17 ± 3.29 mmHg
  change in HR: -52.14 ± 10.93 beats/min
[6]; iv, 1 mg/kg, 5 min
  change in BP: -2.83 ± 1.81 mmHg
[7]
  inhibition of collagen-induced platelet aggregation: dose-dependent inhibition of platelet aggregation

## CCCCCCCCC(=O)NCc1ccc(OCC(O)CNC(C)CC)c(OC)c1 (stereo not shown) [NH-s-C4 H9, N-[4-o-(2-hydroxy-3-(sec-butylamino)propoxy)-3-methoxybenzyl]-nonamide]
[8]; [17]
  Kb: 120 nM
[8]; [18]
  Kb: 22.4 nM
[8]
  Potency ratio (PR), positive chronotropic: 0.07
  Potency ratio (PR), positive inotropic: 0.17
[6]; [12]
  change in BP: 4.11 ± 2.76 mmHg
  change in HR: -38.56 ± 11.30 beats/min
[6]; [13]
  change in BP: 4.89 ± 3.37 mmHg
  change in HR: -35.44 ± 12.46 beats/min
[6]; [14]
  change in BP: 3.33 ± 3.74 mmHg
  change in HR: -32.33 ± 11.96 beats/min
[6]; [15]
  change in BP: -0.88 ± 3.11 mmHg
  change in HR: -25.11 ± 9.49 beats/min
[6]; [16]
  change in BP: 1.22 ± 1.47 mmHg
  change in HR: -9.56 ± 7.03 beats/min

## COc1cc(C=CC(C)=O)ccc1O [DZ, 4-(4'-hydroxy-3'-methoxyphenyl)-3-buten-2-one]
[9]
  Protection: 63.06%
  Writhes No. (Ave. ± S.E.): 29.60 ± 3.75
[9]; [19]
  ED50: 0.38 mg/kg
[10]; ip
  LD50: > 1000 mg/kg
[10]; po
  LD50: > 1000 mg/kg
[4]; 10^-9 -10^-5 M
  effect on heart rate: did not affect the heart rate within 10^-9 -10^-5 M
[7]
  inhibition of collagen-induced platelet aggregation: dose-dependent inhibition of platelet aggregation
  IC100: 250 µM

## COc1cc(C=CC(C)=O)ccc1OCC1CO1 (stereo not shown) [DZE, 4-[4'-(2,3-Epoxypropoxy)-3'-methoxyphenyl]-3-buten-2-one]
[9]
  Protection: 65.69%
  Writhes No. (Ave. ± S.E.): 27.50 ± 3.32
  Potency ratio: 1.70
[9]; [19]
  ED50: 0.23 mg/kg
[7]
  inhibition of collagen-induced platelet aggregation: dose-dependent inhibition of platelet aggregation
  IC100: 100 µM

## C=CCNCC(O)COc1ccc(CNC(=O)CCCCCCCC)cc1OC (stereo not shown) [NHC3 H5, N-[4-0-(2-hydroxy-3-(allylamino)propoxy)-3-methoxybenzyl]-nonamide]
[8]; [17]
  Kb: 93.3 nM
[8]; [18]
  Kb: 25.1 nM
[8]
  Potency ratio (PR), positive chronotropic: 0.08
  Potency ratio (PR), positive inotropic: 0.15
[6]; [12]
  change in BP: -1.56 ± 2.03 mmHg
  change in HR: -36.78 ± 11.25 beats/min
[6]; [13]
  change in BP: -2.67 ± 1.96 mmHg
  change in HR: -28.22 ± 9.00 beats/min
[6]; [14]
  change in BP: -1.89 ± 2.04 mmHg
  change in HR: -19.89 ± 9.26 beats/min
[6]; [15]
  change in BP: -1.11 ± 2.62 mmHg
  change in HR: -5.00 ± 8.72 beats/min
[6]; [16]
  change in BP: 4.78 ± 4.96 mmHg
  change in HR: -7.56 ± 4.14 beats/min

## COCCc1ccc(OCC(O)CNC(C)C)cc1 (stereo not shown) [Metoprolol]
[1]
  cardioselectivity: possess cardioselectivity

## CCCC(=O)Nc1ccc(OCC(O)CNC(C)C)c(C(C)=O)c1 (stereo not shown) [Acebutolol]
[1]
  cardioselectivity: possess cardioselectivity

## CCCCCCCCC(=O)NCc1ccc(OCC(O)CNCCCCC)c(OC)c1 (stereo not shown) [NH-n-C5 H11, N-[4-o-(2-hydroxy-3-(n-pentylamino)propoxy)-3-methoxybenzyl]-nonamide]
[8]
  pA2, positive chronotropic: 7.19 ± 0.02
  pA2, positive inotropic: 7.55 ± 0.04
  Potency ratio (PR), positive chronotropic: 0.12
  Potency ratio (PR), positive inotropic: 0.14
[6]; [12]
  change in BP: -4.67 ± 1.71 mmHg
  change in HR: -25.11 ± 5.81 beats/min
[6]; [13]
  change in BP: -1.67 ± 1.87 mmHg
  change in HR: -23.33 ± 2.41 beats/min
[6]; [14]
  change in BP: -0.88 ± 3.00 mmHg
  change in HR: -10.22 ± 2.38 beats/min
[6]; [15]
  change in BP: 3.67 ± 2.66 mmHg
  change in HR: -5.78 ± 7.89 beats/min
[6]; [16]
  change in BP: 2.44 ± 1.96 mmHg
  change in HR: -6.56 ± 4.38 beats/min

## N-[4-0-(2-hydroxy-3-(3-aminopentylamino)propoxy)-3-methoxybenzyl-]-nonamide [NHC5 H11]
[8]
  pA2, positive chronotropic: 7.25 ± 0.10
  pA2, positive inotropic: 7.26 ± 0.08
  Potency ratio (PR), positive chronotropic: 0.14
  Potency ratio (PR), positive inotropic: 0.07
[6]; [12]
  change in BP: -2.78 ± 2.33 mmHg
  change in HR: -28.11 ± 9.34 beats/min
[6]; [13]
  change in BP: -2.56 ± 1.42 mmHg
  change in HR: -28.89 ± 6.30 beats/min
[6]; [14]
  change in BP: -3.22 ± 1.78 mmHg
  change in HR: -22.78 ± 5.04 beats/min
[6]; [15]
  change in BP: -1.33 ± 1.38 mmHg
  change in HR: -2.22 ± 7.28 beats/min
[6]; [16]
  change in BP: 0.67 ± 0.47 mmHg
  change in HR: -3.33 ± 5.69 beats/min

## COc1cc(CCC(C)=O)ccc1OCC(O)CNC(C)C (racemic) [ZPN]
[11]
  EC50: 11000 nM

## COc1cc(CCC(C)=O)ccc1O [zingerone, 4-(4'-hydroxy-3'-methoxyphenyl)-3-butan-2-one, reference compound]
[9]
  antinociceptive potency relative to DZ: 3 times
  Protection: 71.10%
  Writhes No. (Ave. ± S.E.): 20.75 ± 3.40
  ED50: 0.25 mg/kg
  Potency ratio: 1.50
[7]
  inhibition of collagen-induced platelet aggregation: dose-dependent inhibition of platelet aggregation
